Entries after “also recorded” stand apart in the source; their conditions may differ. Read-outs that look alike come from different tables or passages of the source.
What was measured:
[1] = system: prostate cancer cells; assay: Inhibitory activity on a variety of prostate cancer cells (Table 1); type: cell-based, human; settings: structure-activity statements on Table 1
Description: (§1) All prostate cancer cells were cultured with a RPMI-1640 medium containing 10% calf serum, 100 units of penicillin per milliliter and 100 µg/mL of streptomycin in a constant temperature incubator containing 5% carbon dioxide at a saturated humidity of 37° C.
(§2) Cells in the logarithmic phase of growth were taken and cultured in 96-well plates for 24 hours (5×10^3 cells/well), then treated with different concentrations of the compounds to be tested, and incubated by MTT method for 4 hours. The supernatant was removed by centrifugation, the MTT crystals were dissolved by adding DMSO, and the absorbance value was measured by an enzyme-linked immunosorbent assay at a wavelength of 570 nm. The cytotoxic activity of the compounds to be tested on cancer cells was expressed as IC50.

[2] = system: RWPE-1; assay: Cytotoxic activity test (MTT) on normal human prostate cell RWPE-1; type: cell-based
Description: as §1, §2

[3] = system: C4-2B/ENZR; assay: Cytotoxic activity test (MTT) on C4-2B/ENZR prostate cancer cells; type: cell-based, human; settings: C4-2B/ENZR cells
Description: as §1, §2

[4] = system: C4-2B; assay: Cytotoxic activity test (MTT) on C4-2B prostate cancer cells; type: cell-based, human; settings: C4-2B cells
Description: as §1, §2

[5] = system: Vcap-CRPC; assay: Cytotoxic activity test (MTT) on Vcap-CRPC prostate cancer cells; type: cell-based, human; settings: read-out: Prostate cancer cells IC50 Vcap-CRPC
Description: as §1, §2

[6] = system: LNcap; assay: Cytotoxic activity test (MTT) on LNcap prostate cancer cells; type: cell-based, human; settings: read-out: Prostate cancer cells IC50 LNcap
Description: as §1, §2

[7] = system: 22RV1; assay: Cytotoxic activity test (MTT) on 22RV1 prostate cancer cells; type: cell-based, human
Description: as §1, §2

[8] = normal human prostate cell RWPE-1, MTT, read-out: Normal cells RWPE-1 (IC50)
[9] = 22RV1 cells, MTT, read-out: Prostate cancer cells IC50 22RV1
[10] = Homo sapiens, Vcap-CRPC cells, MTT
[11] = Homo sapiens, 22RV1 cells, MTT, read-out: Prostate cancer cells IC50 22RV1
[12] = Homo sapiens, RWPE-1, read-out: Normal cells RWPE-1 (IC50)

SMILES	inhibitory activity on prostate cancer cells (in words) [1]	IC50 [2, 8]	IC50 [3]	IC50 [4]	IC50 [7, 9]	further results
C=C(C)C12OC3(c4ccccc4)OC1C1C(O)C(O)(CO)C(O)C4(O)C(=O)C(C)=CC4C1(O3)C(C)C2OC(=O)c1ccccc1 (centres unmarked) [YH-51]	significantly reduced activity	12300 nM	77.4 nM	7.81 nM	1770 nM	IC50 ([5]; Vcap-CRPC cells, MTT): 2.02 nM; IC50 ([6]; LNcap cells, MTT): 2.51 nM
C=C(C)[C@@]12OC3(c4ccccc4)O[C@@H]1[C@@H]1[C@@H]4O[C@]4(CO)[C@@H](O)[C@]4(O)C(=O)C(C)=C[C@H]4[C@@]1(O3)[C@H](C)[C@H]2OC(=O)c1ccccc1 [YH-11]	most prominent	13400 nM	–	–	–	–
COc1cccc2c1C(=O)c1c(O)c3c(c(O)c1C2=O)C[C@@](O)(C(=O)CO)C[C@@H]3O[C@H]1C[C@H](N)[C@H](O)[C@H](C)O1 [DOX, doxorubicin, reference compound]	–	33.3 nM	–	–	–	IC50 ([3]; Homo sapiens): 2.87 nM; IC50 ([4]; Homo sapiens): 1.04 nM; IC50 [5, 10]: 12.4 nM; IC50 [7, 11]: 5.99 nM
C=C(C)C1(O)C(O)C2C3OC3(CO)C(O)C3(O)C(=O)C(C)=CC3C2(O)C(C)C1OC(=O)c1ccccc1 (centres unmarked) [YH-57]	–	41100 nM	1870 nM	2320 nM	46700 nM	IC50 ([5]; Vcap-CRPC cells, MTT): 40800 nM; IC50 ([6]; LNcap cells, MTT): 4820 nM
C=C(C)C12OC3(c4ccccc4)OC1C1C4OC4(CO)C(O)C4(O)C(=O)C(C)CC4C1(O3)C(C)C2OC(=O)c1ccccc1 (centres unmarked) [YH-36]	–	14600 nM	–	–	42.5 nM	–
CCCCCCCCCC12O[C@@H]3[C@@H]4[C@@H]5O[C@]5(CO)[C@@H](O)[C@]5(O)C(=O)C(C)=C[C@H]5[C@@]4(O1)[C@H](C)[C@@H](OC(C)=O)[C@]3(C(C)C)O2 [YH-37]	–	10300 nM	–	–	–	–
C=C(C)[C@@]12OC3(/C=C/C=C/CCCCC)O[C@@H]1[C@@H]1[C@@H]4O[C@]4(COC(=O)c4ccccc4)[C@@H](O)[C@]4(O)C(=O)C(C)=C[C@H]4[C@@]1(O3)[C@H](C)[C@H]2OC(C)=O [YH-25]	significant decrease in activity	–	–	–	–	IC50 ([3]; Homo sapiens): 2300 nM; IC50 ([4]; Homo sapiens): 593 nM
C=C(C)[C@@]12OC3(c4ccccc4)O[C@@H]1[C@@H]1[C@@H](Br)[C@@](O)(CO)[C@@H](O)[C@]4(O)C(=O)C(C)=C[C@H]4[C@@]1(O3)[C@H](C)[C@H]2OC(=O)c1ccccc1 [YH-53]	–	–	–	–	–	IC50 [2, 12]: 56300 nM
C=C(C)[C@@]12OC3(c4ccccc4)O[C@@H]1[C@@H]1[C@@H]4O[C@]4(COC(C)=O)[C@@H](O)[C@]4(O)C(=O)C(C)=C[C@H]4[C@@]1(O3)[C@H](C)[C@H]2OC(=O)c1ccccc1 [YH-13]	–	35700 nM	–	–	–	IC50 ([3]; Homo sapiens): 6.79 nM; IC50 [5, 10]: 67.2 nM; IC50 ([6]; Homo sapiens, LNcap cells, MTT): 4.53 nM; IC50 [7, 11]: 83.2 nM
CCCCCCCCCC12O[C@@H]3[C@@H]4[C@@H]5O[C@]5(CO)[C@@H](O)[C@]5(O)C(=O)[C@@H](C)C[C@H]5[C@@]4(O1)[C@H](C)[C@@H](OC(C)=O)[C@]3(C(C)C)O2 [YH-38]	–	20600 nM	–	–	–	IC50 [7, 11]: 5.42 nM
C=C(C)[C@@]1(O)[C@H](OC(=O)c2ccccc2)[C@@H]2[C@@H]3O[C@]3(CO)[C@@H](O)[C@]3(O)C(=O)C(C)=CC3[C@@]2(O)[C@H](C)[C@H]1OC(=O)c1ccccc1 (some centres unmarked) [YH-60]	–	4810 nM	–	–	–	IC50 ([3]; Homo sapiens): 73.9 nM; IC50 ([4]; Homo sapiens): 49.4 nM; IC50 [5, 10]: 911 nM; IC50 ([6]; Homo sapiens, LNcap cells, MTT): 2.85 nM; IC50 [7, 11]: 3890 nM
CC1=C[C@@H]2[C@@](O)(C1=O)[C@H](O)[C@@]1(CO)O[C@H]1[C@H]1[C@H]3OC4(c5ccccc5)O[C@@]3(C(C)C)[C@H](OC(=O)c3ccccc3)[C@@H](C)[C@@]12O4 [YH-40]	–	20300 nM	–	–	–	–
C=C(C)[C@@]12OC3(/C=C/C=C/CCCCC)O[C@@H]1[C@@H]1[C@@H]4O[C@]4(CO)[C@@H](O)[C@]4(O)C(=O)C(C)=C[C@H]4[C@@]1(O3)[C@H](C)[C@H]2OC(=O)c1ccccc1 [YH-16]	more cytotoxic	9670 nM	–	–	–	IC50 ([5]; Homo sapiens): 5.7 nM; IC50 ([6]; Homo sapiens, LNCaP): 5.43 nM; IC50 ([7]; Homo sapiens, 22Rv1, read-out: Prostate cancer cells IC50 22RV1): 33.2 nM
C=C(C)C1(O)C(O)C(C)C2(O)C(C3OC3(CO)C(O)C3(O)C(=O)C(C)=CC32)C1OC(=O)C=CC=CCCCCC (centres unmarked) [YH-61]	–	–	543 nM	189 nM	–	–
C=C(C)[C@@]12OC3(/C=C/C=C/CCCCC)O[C@@H]1[C@@H]1[C@@H]4O[C@]4(COC(C)=O)[C@@H](O)[C@]4(O)C(=O)C(C)=C[C@H]4[C@@]1(O3)[C@H](C)[C@H]2OC(C)=O [YH-24]	–	21900 nM	67.3 nM	–	45.8 nM	IC50 ([5]; Vcap-CRPC cells, MTT): 76.2 nM; IC50 ([6]; LNcap cells, MTT): 48.2 nM
C=C(C)[C@@]12OC3(/C=C/C=C/CCCCC)O[C@@H]1[C@@H]1[C@@H]4O[C@]4(CO)[C@@H](O)[C@]4(O)C(=O)C(C)=C[C@H]4[C@@]1(O3)[C@H](C)[C@H]2OC(C)=O [YH-22]	most prominent; also recorded: more cytotoxic	–	–	–	–	IC50 [2, 12]: 5890 nM
C=C(C)[C@@]12OC3(c4ccccc4)O[C@@H]1[C@@H]1[C@@H]4O[C@]4(CO)[C@@H](O)[C@]4(O)C(=O)C(C)=C[C@H]4[C@@]1(O3)[C@H](C)[C@H]2OC(=O)C(C)C [YH-2]	–	40300 nM	–	–	26.5 nM	–
C=C(C)[C@@]12OC3(c4ccccc4)O[C@@H]1[C@@H]1[C@@H]4O[C@]4(CO)[C@@H](O)[C@]4(O)C(=O)C(C)=C[C@H]4[C@@]1(O3)[C@H](C)[C@H]2OC(=O)CC [YH-3]	–	57200 nM	–	8.95 nM	434 nM	IC50 ([5]; Vcap-CRPC cells, MTT): 1.74 nM; IC50 ([6]; LNcap cells, MTT): 3.77 nM
C=C(C)C12OC3(c4ccccc4)OC1C1C4OC4(CO)C(O)C4(O)C(=O)C(C)CC4C1(O3)C(C)C2OC(C)=O (centres unmarked) [YH-35]	–	42900 nM	1.92 nM	0.426 nM	144 nM	IC50 ([5]; Vcap-CRPC cells, MTT): 64.2 nM; IC50 ([6]; LNcap cells, MTT): 4.82 nM
C=C(C)C1(O)C(O)C2C3OC3(CO)C(O)C3(O)C(=O)C(C)=CC3C2(O)C(C)C1OC(C)=O (centres unmarked) [YH-58]	–	–	40200 nM	33600 nM	–	–
C=C(C)[C@@]12OC3(c4ccccc4)O[C@@H]1[C@@H]1[C@@H]4O[C@]4(COC(C)=O)[C@@H](OC(C)=O)[C@]4(O)C(=O)C(C)=C[C@H]4[C@@]1(O3)[C@H](C)[C@H]2OC(=O)c1ccccc1 [YH-12]	significant decrease in activity	–	–	–	–	IC50 ([3]; Homo sapiens): 1900 nM; IC50 ([4]; Homo sapiens): 557 nM
C=C(C)[C@@]12OC3(C)O[C@@H]1[C@@H]1C=C(CO)C[C@]4(O)C(=O)C(C)=C[C@H]4[C@@]1(O3)[C@H](C)[C@H]2OC(=O)c1ccccc1 [YH-44]	–	17400 nM	641 nM	193 nM	4650 nM	IC50 ([5]; Vcap-CRPC cells, MTT): 306 nM; IC50 ([6]; LNcap cells, MTT): 74.8 nM
C=C(C)[C@@]12OC3(/C=C/C=C/CCCCC)O[C@@H]1[C@@H]1[C@@H]4O[C@]4(COC(=O)c4ccccc4)[C@@H](O)[C@]4(O)C(=O)C(C)=C[C@H]4[C@@]1(O3)[C@H](C)[C@H]2OC(=O)c1ccccc1 [YH-20]	significant decrease in activity	–	5760 nM	1580 nM	–	–
CC(C)[C@@]12OC3(c4ccccc4)O[C@@H]1[C@@H]1[C@@H]4O[C@]4(CO)[C@@H](O)[C@]4(O)C(=O)[C@@H](C)C[C@H]4[C@@]1(O3)[C@H](C)[C@H]2OC(=O)c1ccccc1 [YH-39]	–	18500 nM	–	–	–	IC50 [7, 11]: 6.73 nM
C=C(C)[C@@]12OC3(c4ccccc4)O[C@@H]1[C@@H]1[C@@H]4O[C@]4(COC(=O)c4ccccc4)[C@@H](O)[C@]4(O)C(=O)C(C)=C[C@H]4[C@@]1(O3)[C@H](C)[C@H]2OC(C)=O [YH-9]	significant decrease in activity	–	–	–	–	IC50 ([3]; Homo sapiens): 1460 nM; IC50 ([4]; Homo sapiens): 380 nM
C=C(C)[C@@]12OC3(c4ccccc4)O[C@@H]1[C@@H]1[C@@H]4O[C@]4(CO)[C@@H](O)[C@]4(O)C(=O)C(C)=C[C@H]4[C@@]1(O3)[C@H](C)[C@H]2OC(C)=O [YH-6]	–	44200 nM	–	–	–	IC50 ([3]; Homo sapiens): 2.34 nM; IC50 ([4]; Homo sapiens): 0.367 nM; IC50 [5, 10]: 21.2 nM; IC50 ([6]; Homo sapiens, LNcap cells, MTT): 3.89 nM; IC50 [7, 11]: 52.5 nM
C=C(C)C1(O)C(OC(=O)c2ccccc2)C(C)C2(O)C(C(O)C(O)(CO)C(O)C3(O)C(=O)C(C)=CC32)C1OC(=O)c1ccccc1 (centres unmarked) [YH-56]	–	35100 nM	2690 nM	4470 nM	47100 nM	IC50 ([5]; Vcap-CRPC cells, MTT): 15400 nM; IC50 ([6]; LNcap cells, MTT): 13100 nM
C=C(C)[C@@]12OC3(c4ccccc4)O[C@@H]1[C@@H]1[C@@H]4O[C@]4(CO)[C@@H](O)[C@]4(O)C(=O)C(C)=C[C@H]4[C@@]1(O3)[C@H](C)[C@H]2OC(=O)CCC [YH-1]	–	43500 nM	–	–	5.74 nM	–
C=C(C)[C@@]12OC3(/C=C/C=C/CCCCC)O[C@@H]1[C@@H]1[C@@H]4O[C@]4(COC(C)=O)[C@@H](O)[C@]4(O)C(=O)C(C)=C[C@H]4[C@@]1(O3)[C@H](C)[C@H]2OC(=O)c1ccccc1 [YH-19]	significant decrease in activity	–	136 nM	64.4 nM	–	–

Source: patent US12686686B2 (priority 2020, dated 2026)
